# In patent publication US6331555A, “Treatment of platelet derived growth factor related disorders such as cancers” (priority 1999, dated 2001):
# Values joined by “and” are separate entries in the source; they are usually repeats but may differ in a detail not shown here. Identical values can stand only once. Like-named read-outs stand apart in the source and are kept apart here.
# What was measured:
# [1] = test system: U1242 cells; assay: Cytotoxicity in U1242 cells, LDH; assay type: cell-based; conditions: Homo sapiens, read-out: CYTOXICITY LDH U1242 LD50; heading: CYTOXICITY LDH U1242 LD50
# Method: (§1) The cytotoxicity of each drug was also determined. The cells were plated as described above. Following incubation with drug, cell survival was measured by an MTT assay as described by Mossman J. Immunol. Methods 65:55-63 (1983), or by measuring the amount of LDH released (Korzeniewski and Callewaert, J. Immunol. Methods 64:313 (1983); Decker and Lohmann-Matthes, J. Immunol. Methods 115:61 (1988) .
# [2] = test system: PDGFR; assay: Receptor tyrosine kinase inhibition, PDGFR; assay type: cell-based; conditions: W = done in Western assay; read-out: PDGFR IC50 (W)
# Method: (§2) For western blotting, cells were plated in 2 mL growth medium into 6-well dishes (500,000 cells per well) and allowed to attach overnight. […] The plates were then incubated overnight at 37° C., ambient CO2. […] After a 7 min incubation at room temperature with ligand, the plates were put on ice and washed three times with 1 mL ice-cold PBS plus 1 mM orthovanadate. Lysis was achieved by pipetting cells in 0.5 mL of buffer containing 50 mM Tris, pH 7.4, 10% glycerol, 1% NP-40, 2 mM EDTA, 1 mM sodium vanadate (Na3 VO4), 10 mM pyrophosphate, 1 mM PMSF, […]. A 300 μL aliquot of each lysate was immediately added to 100 μL 4×Laemmli sample buffer ([…] Tris pH 6.9, 20% glycerol, 7% SDS, 5 mM EDTA, 5% β-mercaptoethanol) containing phosphatase inhibitors, 2 mM Na3 VO4 and 10 mM pyrophosphate. Samples were boiled for 5 min, frozen in dry ice-ethanol, and stored at -80° C. […] The integrity of the protein-to-membrane transfer was determined by staining with 1% Ponceau S in 5% acetic acid for 5 min. After destaining in several distilled water rinses, the membrane was soaked overnight in blocking buffer containing 5% milk in Tris-buffered saline, 0.05% Tween 20. Phosphotyresine was detected by incubating the membrane (1 hr at room temperature) with an anti-phosphotyosine antiserum diluted in blocking buffer at 1:3000. […] The antibodies were visualized using ECL reagent from Amersham and by exposure to Fuji RX film.
# (§3) For ELISA assays, cells were grown to 80-90% confluency in growth medium and seeded in 96-well tissue culture plates in 0.5% serum at 25,000 to 30,000 cells per well. After overnight incubation in 0.5% serum-containingmedium, cells were changed to serum-free medium and treated with test compound for 2 hr in a 5% CO2, 37° C. incubator. […] Lysates were incubated with shaking for 1 hr at room temperature. The plates were washed with TBST four times and then incubated with polyclonol anti-phosphotyrosine antibody at room temperature for 30 min. Excess anti-phosphotyrosine antibody was removed by rinsing the plate with TBST four times. Goat anti-rabbit IgG antibody was added to the ELISA plate for 30 min at room temperature followed by rinsing with TBST four more times.
# The ability of different compound to inhibit different receptor tyrosine kinases was tested.
# [3] = target: PDGFR (Homo sapiens, UniProt P09619); assay: PDGF-stimulated receptor phosphorylation in U1242 cells, ELISA; assay type: cell-based; set-up: U1242 (PDGF-β receptor); host or cells: U1242 MG glioma cells; conditions: 100 ng/ml PDGF-BB; read-out: ELISA P-TYR U1242 IC50
# PDGFR (Homo sapiens, UniProt P09619), sequence (P09619 33-1106): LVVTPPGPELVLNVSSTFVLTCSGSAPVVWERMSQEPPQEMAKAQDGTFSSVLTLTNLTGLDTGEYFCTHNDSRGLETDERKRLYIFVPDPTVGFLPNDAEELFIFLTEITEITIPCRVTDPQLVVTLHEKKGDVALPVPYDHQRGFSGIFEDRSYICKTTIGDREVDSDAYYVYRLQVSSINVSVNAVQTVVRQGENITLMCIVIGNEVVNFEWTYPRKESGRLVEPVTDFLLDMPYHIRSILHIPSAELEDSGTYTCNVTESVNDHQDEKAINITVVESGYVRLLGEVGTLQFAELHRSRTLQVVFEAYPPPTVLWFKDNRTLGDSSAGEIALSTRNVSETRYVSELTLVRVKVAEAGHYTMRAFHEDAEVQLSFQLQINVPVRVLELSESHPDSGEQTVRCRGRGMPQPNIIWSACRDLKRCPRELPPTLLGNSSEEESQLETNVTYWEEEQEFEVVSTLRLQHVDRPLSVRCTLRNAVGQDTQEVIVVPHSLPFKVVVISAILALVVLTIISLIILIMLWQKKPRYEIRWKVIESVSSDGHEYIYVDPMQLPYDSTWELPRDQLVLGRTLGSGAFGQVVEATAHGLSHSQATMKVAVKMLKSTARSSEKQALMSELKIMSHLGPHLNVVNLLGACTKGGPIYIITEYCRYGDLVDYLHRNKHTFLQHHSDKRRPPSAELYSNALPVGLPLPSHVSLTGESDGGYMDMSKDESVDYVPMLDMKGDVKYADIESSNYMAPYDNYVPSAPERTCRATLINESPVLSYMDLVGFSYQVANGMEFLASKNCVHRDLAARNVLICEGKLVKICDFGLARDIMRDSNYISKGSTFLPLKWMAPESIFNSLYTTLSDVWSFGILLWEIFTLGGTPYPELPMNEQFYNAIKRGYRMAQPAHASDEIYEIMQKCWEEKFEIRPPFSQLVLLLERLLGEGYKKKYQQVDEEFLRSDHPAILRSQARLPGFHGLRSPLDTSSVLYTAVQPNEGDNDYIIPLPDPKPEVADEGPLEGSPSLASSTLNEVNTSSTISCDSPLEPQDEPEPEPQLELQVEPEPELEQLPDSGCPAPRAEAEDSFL
# Method: as §3, with “incubator. Cells were then stimulated with ligand for 5-10 min followed by lysis with HNTG (20 mM Hepes, 150 mM NaCl, 10% glycerol, 5 mM EDTA, 5 mM Na3 VO4 0.2% Triton X-100, and 2 mM NaPyr).” for “incubator.”
# U1242 MG cells were plated in 96-well plates at a concentration of 5×10^4 cells/well in cultured media containing 0.5% FBS. The cells were incubated for 24 hours. The cells were then treated with a particular compound for 2 hours followed by the addition of 100 ng/ml PDGF-BB and incubation for 10 minutes.
# Cells were lysed in 0.2 M Hepes, 0.15 M NaCl, 10% V/V glycerol, 0.04% Triton X-100, 5 mM EDTA, 5 MM Na^+ vanadate and […] Na^+ pyrophosphate. Cell lysates were then added to an ELISA plate coated with an anti-PDGF receptor antibody (Genzyme). ELISA plates were coated at […] of antibody/well in […] of PBS for 18 hours at 4° C. prior to the addition of the lysate.
# The lysate was incubated in the coated plates for 1 hour and then washed four times in TBST (35 mM Tris-HCl pH 7.0, 0.15 M NaCl, 0.1% Triton X-100). Anti-phosphotyrosine antibody ([…] in PBS) was added and the mixture was incubated for 30 minutes at room temperature. The wells were then washed four times in TBST, a secondary antibody conjugated to POD (TAGO) was added to each well, and the treated wells were incubated for 30 minutes at room temperature. The wells were then washed four times in TBST, ABTS/H2 O2 solution was added to each well and the wells were incubated for two minutes. Absorbance was then measured at 410 nm.
# [4] = test system: PDGF β-receptor; conditions: cited from earlier work
# [5] = test system: PDGF α-receptor; conditions: high concentrations; cited from earlier work
# [6] = test system: PDGF receptor; conditions: cited from earlier work
# [7] = LD10; conditions: in vivo
# [8] = test system: U1242 cells; assay: Cytotoxicity in U1242 cells, MTT; assay type: cell-based, human; conditions: Homo sapiens, read-out: CYTOXICITY MTT U1242 LD50; heading: CYTOXICITY MTT U1242 LD50
# Method: as §1
# [9] = test system: C6 glioma cells; assay: C6 glioma SC xenograft in mice; assay type: in vivo
# Method: (§4) Cell lines were grown in appropriate medium (see Appendix 1). Cells were harvested at or near confluency with 0.05% Trypsin-EDTA and pelleted at 450×g for 10 min. Pellets were resuspended in sterile PBS or media (without FBS) to a particular concentration and the cells were implanted into the hindflank of mice. Tumor growth was measured over 3 to 6 weeks using venier calipers. Tumor volumes were calculated as a product of length×width×height unless otherwise indicated. P values were calculated using the Students' t-test.
# (§5) C6 and SKOV-3(T) cells were grown in culture, as described in "cell growth" above, and implanted into the hind flank of a female Balb/c nu/nu mouse at 3×10^6 cells (for C6 experiments), or 1×10^7 cells (for SKOV-3 experiments) in […] of PBS on Day 0. U87MG, U118MG or U373MG human glioblastoma cells (obtained from the ATCC), or A4312 were also implanted into athymic mice. […] Tumors were measured using venier calipers and tumor volume was calculated as a product of tumor length, width, and height.
# [10] = C6 glioma SC xenograft in mice; assay type: in vivo; conditions: rat, in vivo, ip
# Method: as §4, §5
# [11] = test system: C6 cells; assay: C6 SRB growth assay; assay type: cell-based, rat; conditions: Rattus norvegicus, C6; read-out: C6 SRB IC50
# [12] = target: T1, PDGF-R (U1242) (Homo sapiens, UniProt P09619); assay: U1242 kinase (PDGF-R activity); assay type: cell-based
# T1 construct: U1242 (PDGF-β receptor); host or cells: U1242 MG glioma cells
# T1 sequence (P09619 33-1106): as above
# Method: as §2, §3
# PDGF-R activity, C6 SRB, and in vivo efficacy were measured using the procedures described in the appendices above.
# [13] = test system: A431 cells; conditions: cited from earlier work
# [14] = test system: Platelet-derived growth factor-dependent tyrosine phosphorylation; conditions: intact cells; cited from earlier work
# [15] = W = done in Western assay, read-out: U1242 KINASE IC50 (W)
compound,measurement,setting,value
COc1cc2nc(Cl)c(-c3ccccc3)cc2c(OC)c1OC [Compound G11],CC50,[1],90 µM
same,IC50,[2],20 µM
same,IC50,[3],15 µM
neomycin,binding of PDGF-BB to the β-receptor,[4],did not inhibit binding to the β-receptor
same,binding of PDGF-BB to the α-receptor,[5],inhibited the binding of PDGF-BB to the α-receptor
Cc1ccc(C(=O)Nc2ccc(S(=O)(=O)O)c3cc(S(=O)(=O)O)cc(S(=O)(=O)O)c23)cc1NC(=O)c1cccc(NC(=O)Nc2cccc(C(=O)Nc3cc(C(=O)Nc4ccc(S(=O)(=O)O)c5cc(S(=O)(=O)O)cc(S(=O)(=O)O)c45)ccc3C)c2)c1 [suramin],receptor binding,[6],interfere with receptor binding
O=C(NN=Cc1ccc(O)c(O)c1)C(=O)Nc1cccc([N+](=O)[O-])c1 [Compound E15],LD10,[7],> 400 mg/kg
same,CC50,[8],> 100 µM
same,inhibition in vivo at 15 mg/kg,"[9]; Rattus norvegicus, C6 glioma, sc, at 15 mg/kg, read-out: C6 in vivo EFFICACY",66%
same,inhibition in vivo at 50 mg/kg,"[9]; Rattus norvegicus, C6 glioma, sc, at 50 mg/kg, read-out: C6 in vivo EFFICACY",58%
same,inhibition in vivo at 100 mg/kg,"[9]; Rattus norvegicus, C6 glioma, sc, at 100 mg/kg, read-out: C6 in vivo EFFICACY",0%
same,mortality at 336 h,[10]; 15 mg/kg,0%
same,mortality at 360 h,[10]; 50 mg/kg,12.5%
same,mortality at 192 h,[10]; 100 mg/kg,100%
same,IC50,[11],4.4 µM
same,IC50,[12]; [15],5 µM and 10 µM
same,IC50,[12]; read-out: U1242 KINASE IC50,> 50 µM
same,IC50,[3],5 µM
O=C(c1ccccc1)c1ccc2ncc(-c3ccccc3)nc2c1 [Compound G21],LD10,[7],> 200 mg/kg
same,CC50,[1],> 100 µM
same,C6 in vivo EFFICACY,[9]; at 40 mg/kg,no effect
same,mortality,[10]; 40 mg/kg,0%
same,IC50,[11],> 12 µM
same,IC50,[12]; [15],6 µM
same,IC50,[12]; read-out: U1242 KINASE IC50,> 50 µM
same,IC50,[3],6 µM
CC(O)=C(C#N)C(=O)Nc1ccc(C(F)(F)F)cc1 [A77 1726],growth of A431 cells,[13],inhibited growth of A431 cells
same,Platelet-derived growth factor-dependent tyrosine phosphorylation,[14],inhibited by A77 1726 in intact cells at concentrations similar to EGF-dependent phosphorylation
c1ccc(-c2cnc3ncccc3n2)cc1 [Compound G16],CC50,[8],> 100 µM
same,IC50,[3],35 µM
"N#CC(C(=O)Nc1ccc(C(F)(F)F)cc1)=C(O)c1cccc(Oc2ccccc2)c1 [Compound B16, 2-Propenamide, 2-cyano-3-hydroxy-3-((3-phenoxy)phenyl)-N-[(4-trifluoromethyl)phenyl]]",CC50,[8],50 µM
same,IC50,[3],35 µM
